Data on three compounds can be found in publication PMC9243770, “Structural and Biophysical Characterization of Purified Recombinant Arabidopsis thaliana's Alternative Oxidase 1A (rAtAOX1A): Interaction With Inhibitor(s) and Activator” (Frontiers in Plant Science, 2022).

Test [1] deals with T1, Alternative oxidase 1A (rAtAOX1A) (Arabidopsis thaliana, UniProt Q39219).
T1 construct: gene AOX1A; mature protein, N-terminal His6-tag, expressed in E. coli BL21(DE3)
T1 sequence (Q39219 63-354): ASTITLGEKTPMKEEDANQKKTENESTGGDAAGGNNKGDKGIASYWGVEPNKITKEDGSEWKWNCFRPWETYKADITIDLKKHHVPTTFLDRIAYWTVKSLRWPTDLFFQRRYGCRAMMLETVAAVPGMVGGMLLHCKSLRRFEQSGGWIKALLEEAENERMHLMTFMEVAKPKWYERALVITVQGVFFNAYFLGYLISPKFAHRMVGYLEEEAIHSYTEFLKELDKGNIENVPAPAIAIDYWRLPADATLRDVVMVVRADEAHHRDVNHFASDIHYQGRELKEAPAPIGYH
As to the kind of experiment: oxygen uptake of purified enzyme with […] duroquinol (Clark-type electrode). Format: biochemical.

For test [2], the target named is T1, Alternative oxidase 1A (rAtAOX1A). As to the kind of experiment: SPR (Biacore, CM5 chip, […] Langmuir kinetic fit); also CD and inhibition of cell respiration. It counts as binding. In general terms: In SPR one partner is held on a chip, and binding of the other changes the refractive index at the surface.

pKd: −log10 of the molar value.

`Cc1c(C)c(O)c(C)c(C)c1O` [DQH2, duroquinol]: the “oxygen uptake of purified enzyme with 600 μM duroquinol (Clark-type electrode)” value in test [1] was 3.86 μmol O2 min^−1 mg^−1 protein. A word on the pKd: it is −log10 of the Kd, conventionally taken in molar units. `O=C(NO)c1ccccc1O` [SHAM, salicylhydroxamic acid] showed a negative logarithm of the Kd (pKd) in test [2] of 8.51. `CCCOC(=O)c1cc(O)c(O)c(O)c1` [n-PG, n-propyl gallate] had a negative logarithm of the Kd (pKd) in test [2] of 9.31.
